# Measured values reported in patent US4931288A, “Controlled release compositions (II)” (Lloyds Bank PLC, priority 1979, dated 1990).
# How the values were obtained:
# [1] = In vitro release of prostaglandin from dry polymer cylinders/pessaries/slices into phosphate buffer pH 7.4 via 3H activity; details: for t1/2: pH 7.4, 37° C.; for T1/2: dried polymer sample, pH 7.4, 37°
# [2] = Clinical pilot study of hydrogel vaginal pessaries containing PGE2 10 mg (induction of labour); assay type: in vivo, human
# Method: Hydrogel vaginal pessaries, formulated as above, each containing PGE2 10 mg, have been evaluated clinically in a pilot study.
# [3] = In vitro release of prostaglandin from swollen (undried) polymer cylinders/pessaries into phosphate buffer pH 7.4 at 37° C.; assay type: physicochemical; details: for t1/2: pH 7.4, 37°
# Method: (B) The procedure described in (A) is followed but the swollen cylinders obtained after 24 hours treatment with the PGE2 solution are not dried but are tested directly for the release of PGE2 into pH 7.4 phosphate buffer at 37° C. In this instance a typical half life is of the order of 10 hours.
# To study the release of PGE2 from a fully swollen pessary into phosphate buffer pH 7.4 at 37° the polymer is swollen in an ethanol/water solution of PGE2 of 0.87 g C2 H5 OH solution of 1% w/v Prostin E2 contains 11 mg PGE2 0.09 g C2 H5 OH containing 1 μCi of ^3 HPGE2 is added, then 3.56 g H2 O. A slice of polymer 3.1 mm×10 mm×30 mm weighing 1.13 g is added to the prepared PGE2 solution in 3.7/1, w/w, water/ethanol in a polythene bag. The bag is sealed and the polymer allowed to swell over 20 hours. The swollen polymer slice is then removed and the surface wiped dry with a tissue before weighing. Uptake of solution: 4.44 g i.e. almost all the PGE2 is contained in the swollen gel. The pessary is rinsed in distilled water and then transferred to phosphate buffer solution pH 7.4 at 37° C. The release of PGE2 into the surrounding solution is measured by frequent regular replacement of the buffer and counting the activity of ^3 H in the withdrawn solution. […] It is also possible to calculate the diffusion coefficient of PGE2 in the swollen gel D=0.83×10^-6 cm^2 sec^-1.
# [4] = Clinical induction of abortion; assay type: in vivo, human; details: from 1 to 2.5 mg
smiles,measurement,setting,value
"CS(=O)(=O)NC(=O)CCC/C=C\C[C@H]1C(=O)C[C@@H](O)[C@@H]1/C=C/[C@@H](O)COc1ccccc1 [N methanesulphonyl 15z, 11α, 13E 15α)-9-Oxo-11,15-dihydroxy-16-phenoxy-w-tetranorprosta-5,13 dien-1-amide]",half-life of the drug in the pessary,"[1]; Example 15, dried slice 1.2×24×40 mm, buffer pH 7.4, 37° C.",3.7 h
CCCCC[C@H](O)/C=C/[C@H]1[C@H](O)CC(=O)[C@@H]1C/C=C\CCCC(=O)O [PGE2],labour and delivery outcome,"[2]; patients with average or favourable induction prospects, PGE2 treatment alone, without orthodox induction","became established in labour and made good progress, with successful vaginal delivery"
same,cervical ripening,[2]; unfavourable patients,progressive
same,establishment in labour,[2]; unfavourable patients,all were established in labour
same,latent phase of labour,[2]; unfavourable patients,expectedly longer
same,agreement of clinical experience with in vitro release,"[2]; vaginal pessaries, PGE2 10 mg",accorded well with in vitro release studies
same,course of uterine activity,"[2]; vaginal pessaries, PGE2 10 mg",maintained or gradually increased
same,"time to appreciable uterine activity, not requiring analgesia","[2]; vaginal pessaries, PGE2 10 mg",1 to 2 h
same,ripening of the cervix,"[2]; vaginal pessaries, PGE2 10 mg, all cases",significant `ripening` of the cervix in all cases
same,half life for release,"[3]; Example 10(B), swollen cylinders not dried, pH 7.4 phosphate buffer, 37° C., typical",~10 h
same,half life in the fully swollen device relative to the initially dry device,[3]; Example 12,approximately half of the half life in the initially dry device
same,constancy of the rate of release,"[3]; Example 12, fully swollen devices",do not provide the desirable reasonably constant period of the rate of release
same,half life t1/2 of PGE2 in the swollen pessary,"[3]; Example 12, fully swollen pessary 3.1 mm×10 mm×30 mm, phosphate buffer pH 7.4, 37°",2.7 h
same,t1/2,"[3]; Example 12, fully swollen pessary, thickness 1.2 mm",0.7 h
same,t1/2,"[3]; Example 12, fully swollen pessary, thickness 2.4 mm",2.0 h
same,t1/2,"[3]; Example 12, fully swollen pessary, thickness 3.1 mm",2.7 h
same,"diffusion coefficient of PGE2 in the swollen gel, D","[3]; Example 12, fully swollen pessary, calculated from release measurements",0.83×10^-6 cm^2 sec^-1
same,half life for release of the drug,"[1]; Example 10(A), dry cylinders, PEG 6,000/MDI/TMP (0.75 molar) polymer, pH 7.4 phosphate buffer, 37° C., typical",~20 h
same,t1/2,"[1]; Example 12, dry pessary, thickness 1.2 mm",1.4 h
same,t1/2,"[1]; Example 12, dry pessary, thickness 1.5 mm",2.4 h
same,t1/2,"[1]; Example 12, dry pessary, thickness 1.7 mm",2.7 h
same,t1/2,"[1]; Example 12, dry pessary, thickness 2.6 mm",7.0 h
same,t1/2,"[1]; Example 12, dry pessary, thickness 2.9 mm",8.0 h
same,t1/2,"[1]; Example 12, dry pessary, thickness 3.4 mm",12.0 h
same,half life t1/2 of the PGE2 in this polymer,"[1]; Example 12, dry pessary, phosphate buffer pH 7.4, 37° C.",7 h
CCCCC(C)(C)[C@@H](O)/C=C/[C@H]1[C@H](O)CC(=O)[C@@H]1CCCC/C=C/C(=O)O (relative stereo) [16:16-dimethyl-trans-Δ^2 -PGE1],induction of abortion,[4],Induction of abortion has been effected
"CCCCC(C)(C)C(O)C=CC1C(O)CC(=O)C1CC=CCCCC(=O)Oc1ccc(C=NNC(N)=O)cc1 (stereo not drawn) [PG ester, 16,16 dimethyl prostaglandin E2 benzaldehyde semi-carbazone]",duration of the release pattern,"[1]; Example 14, 0.25 mm slice",2 weeks
same,release rate,"[1]; Example 14, 0.25 mm slice, day 2",50 µg/h
same,release rate,"[1]; Example 14, 0.25 mm slice, overnight",13 µg/h
same,character of the release,"[1]; Example 14, thin (0.25 mm) sample",essentially that of a fully swollen device containing a dispersion rather than a solution of a low solubility prostaglandin analogue
"CCCCC(C)(C)[C@H](O)/C=C/[C@H]1[C@H](O)CC(=O)[C@@H]1C/C=C\CCCC(=O)OC [Ono, 16,16-dimethyl PGE2, methyl ester]",dependence of half life t1/2 on thickness,"[1]; Example 13, 3 different thicknesses",directly proportional to the square of the thickness
same,T1/2,"[1]; Example 13, thickness 0.25 mm",0.5 h
same,T1/2,"[1]; Example 13, thickness 0.65 mm",3.0 h
same,T1/2,"[1]; Example 13, thickness 1.00 mm",6.3 h
same,half life of Ono in this sample,"[1]; Example 13, dried slice 1 mm×11 mm×22 mm, phosphate buffer pH 7.4, 37°",6.3 h
"CCCCC(C)(C)[C@H](O)/C=C/[C@H]1[C@H](O)CC(=O)[C@@H]1CCCC/C=C/C(=O)OC [16,16-dimethyl-trans Δ^2 -PGE1 methyl ester]",half life of release,"[1]; Example 11, dry cylinders, PEG 6,000/MDI/TMP (0.75 molar) polymer, pH 7.4 phosphate buffer, typical",~95 h
